Source: patent publication US10766866B2, “Deterrents for arthropods and marine organisms” (priority 2017, dated 2020)

Tests used:
[1] = test system: Anopheles gambiae mosquito isoform A OctR (AgAOctR); assay: OctR activation, change in intracellular calcium; assay type: cell-based; conditions: AgAOctR over Homo sapien α2-AR subtypes
From the text: (§1) Functional expression of cloned arthropod OctRs and human α2-ARs: The cDNAs for α-like OctRs from different arthropod species (e.g., Anopheles gambiae, Aedes aegypti, Periplaneta americana, Drosophila melanogaster, Ixodes scapularis, Balanus improvises) and for α2-AR subtypes from humans were individually subcloned into mammalian expression vectors. These plasmids, which harbor a resistance gene for the selection drug G418 and the cDNA sequence for the receptor of interest, were individually transfected into mammalian cells using a calcium phosphate precipitation method. G418 selection was then employed to generated stable clonal cell lines. Utilizing rapid filtration radioligand binding techniques, the cell surface density of receptor expression of the individual clonal cell lines was determined at equilibrium and those with similar high levels of expression were selected for further experiments. Briefly, binding conditions were 50 mM Tris binding buffer pH 7.4 at 25° C. and an ice-cold wash buffer 10 mM Tris-HCl, pH 7.4). The radioligand was [3H]rauwolscine and non-specific binding was determined in the presence of 10 μM atipamezole. Following the addition of membranes prepared from the clonal cell lines, samples were mixed and allowed 2 hr. to reach equilibrium before rapid filtration and washing through 0.3% PEI-treated GF/C filters. The radioactivity remaining on the filters was quantified by scintillation counting. Receptor density (Bmax) was back calculated knowing the specific activity of the radioligand and applying the equation for a square hyperbola model: Bmax=(Y·(KD+X))/X, where Y is [specifically bound radioligand] and X=[radio ligand concentration]. The affinity (KD) for the radioligand for each receptor was determined in separate saturation isotherm binding experiments using the same binding conditions as describe above.
(§2) Measurement of OctR activation by measuring changes in intracellular calcium: Activation of arthropod α-like OctRs increases intracellular calcium via a Gq-coupling mechanism. This involves activation of phospholipase C leading to an increase in intracellular inositol triphosphate (IP3) which then activates IP3-gated calcium channels in the endoplasmic reticulum causing a transient rise in intracellular calcium. These changes in intracellular calcium upon OctR activation were measured by loading cells with intracellular calcium sensitive dye CALCIUM 6QR and reading the change in calcium-induced fluorescent signal over time on a FlexStation 3 microplate reader.

[2] = test system: Ixodes scapularis tick OctR (IsTOctR); assay: OctR activation, change in intracellular calcium; assay type: cell-based; conditions: Ixodes tick OctR over Homo sapien α2-AR subtypes
From the text: as §1, §2

[3] = test system: Periplaneta americana OctR (PaOctR); assay: OctR activation, change in intracellular calcium; assay type: cell-based; conditions: Periplaneta cockroach OctR over Homo sapien α2-AR subtypes
From the text: as §1, §2

Balanus OctR (BiOctR) = assay: OctR activation, change in intracellular calcium; assay type: cell-based, Balanus improvises; conditions: Balanus barnacle OctR over Homo sapien α2-AR subtypes
From the text: as §1, with “Briefly, binding conditions were 50 mM Tris binding buffer pH 7.4 at 25° C. and an ice-cold wash buffer 10 mM Tris-HCl, pH 7.4).” left out, “Following the addition of membranes prepared from the clonal cell lines, samples were mixed and allowed 2 hr. to reach equilibrium before rapid filtration and washing through 0.3% PEI-treated GF/C filters.” left out, “The affinity (KD) for the radioligand for each receptor was determined in separate saturation isotherm binding experiments using the same binding conditions as describe above.” left out

[4] = molecular target: T1, DmOctR (Drosophila octopamine receptor), cloned α-like OctR (Drosophila melanogaster, UniProt Q7JQF1); assay: OctR activation: change in intracellular calcium (CALCIUM 6QR dye, FlexStation 3) in stably transfected mammalian cells; assay type: cell-based; conditions: agonist
T1 construct: Gq calcium readout
T1 sequence (Q7JQF1 1-645): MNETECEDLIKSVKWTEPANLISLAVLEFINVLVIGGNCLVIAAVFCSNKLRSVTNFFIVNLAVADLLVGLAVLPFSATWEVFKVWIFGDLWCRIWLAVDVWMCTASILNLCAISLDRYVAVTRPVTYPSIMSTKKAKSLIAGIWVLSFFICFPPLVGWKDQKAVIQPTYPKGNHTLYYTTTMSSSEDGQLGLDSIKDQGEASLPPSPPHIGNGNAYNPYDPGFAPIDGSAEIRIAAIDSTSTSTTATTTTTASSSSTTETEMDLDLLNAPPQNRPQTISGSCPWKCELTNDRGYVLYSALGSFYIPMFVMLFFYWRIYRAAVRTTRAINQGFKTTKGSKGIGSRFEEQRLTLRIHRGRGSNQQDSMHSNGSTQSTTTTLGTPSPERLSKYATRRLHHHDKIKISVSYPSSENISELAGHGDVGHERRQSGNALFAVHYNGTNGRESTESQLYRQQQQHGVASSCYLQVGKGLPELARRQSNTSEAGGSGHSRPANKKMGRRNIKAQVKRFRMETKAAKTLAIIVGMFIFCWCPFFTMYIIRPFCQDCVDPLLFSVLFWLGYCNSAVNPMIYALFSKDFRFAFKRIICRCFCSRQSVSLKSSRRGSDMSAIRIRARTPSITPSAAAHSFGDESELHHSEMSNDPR
From the text: as §1, §2

[5] = molecular target: T2, Hsα2A-AR (human α2A adrenergic receptor) (Homo sapiens, UniProt P08913); assay: [3H]rauwolscine competition radioligand binding, membranes of clonal mammalian cell lines; conditions: 50 mM Tris pH 7.4, 25° C., 2 hr, Cheng-Prusoff
T2 construct: expressed in transfected cells; membranes
T2 sequence (P08913 whole entry): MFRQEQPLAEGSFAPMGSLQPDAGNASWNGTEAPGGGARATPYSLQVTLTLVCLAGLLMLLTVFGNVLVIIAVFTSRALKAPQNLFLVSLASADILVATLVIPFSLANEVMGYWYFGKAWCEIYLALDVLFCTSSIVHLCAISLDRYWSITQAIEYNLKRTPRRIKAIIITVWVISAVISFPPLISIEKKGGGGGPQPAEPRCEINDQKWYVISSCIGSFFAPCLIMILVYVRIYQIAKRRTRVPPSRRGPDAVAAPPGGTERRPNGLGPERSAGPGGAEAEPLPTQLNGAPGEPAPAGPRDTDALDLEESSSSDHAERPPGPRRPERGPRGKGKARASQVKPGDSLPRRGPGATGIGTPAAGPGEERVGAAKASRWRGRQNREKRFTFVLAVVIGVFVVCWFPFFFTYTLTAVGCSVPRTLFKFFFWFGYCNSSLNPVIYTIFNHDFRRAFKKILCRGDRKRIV
From the text: as §1
(§3) Measurement of compound affinities by competition radioligand binding: Affinities (Ki) for compounds were determined by [3H]rauwolscine competition binding using the same binding conditions as described above. The Ki values were calculated from IC50 values using the Cheng-Prusoff equation.

[6] = molecular target: T3, Hsα2C-AR (human α2C adrenergic receptor) (Homo sapiens, UniProt P18825); assay: as above; conditions: 50 mM Tris pH 7.4, 25° C., 2 hr, Cheng-Prusoff
T3 construct: expressed in transfected cells
T3 sequence (P18825 1-462): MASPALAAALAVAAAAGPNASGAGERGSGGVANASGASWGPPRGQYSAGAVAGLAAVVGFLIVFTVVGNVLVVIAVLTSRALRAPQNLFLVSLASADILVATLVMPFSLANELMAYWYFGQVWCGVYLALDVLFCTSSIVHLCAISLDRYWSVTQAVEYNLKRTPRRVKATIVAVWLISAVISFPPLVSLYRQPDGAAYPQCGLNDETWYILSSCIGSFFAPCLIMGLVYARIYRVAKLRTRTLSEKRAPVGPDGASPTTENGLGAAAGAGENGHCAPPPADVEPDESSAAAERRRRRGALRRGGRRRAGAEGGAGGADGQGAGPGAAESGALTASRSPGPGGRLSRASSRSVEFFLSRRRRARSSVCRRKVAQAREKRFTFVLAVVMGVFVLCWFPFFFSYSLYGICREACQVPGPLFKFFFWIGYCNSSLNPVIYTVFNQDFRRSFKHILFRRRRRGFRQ
From the text: as §1, §3

Aedes mosquito = assay: Protection against mosquito biting and toxicity to mosquitoes; assay type: in vivo
Volatility = assay type: physicochemical

## C=C(c1cnc[nH]1)c1cccc(C)c1C [AZ0027]
[1]
  selectivity Ki(Hsα2-AR)/EC50(OctR): highly selective
[2]
  selectivity Ki(Hsα2-AR)/EC50(OctR): highly selective
[3]
  selectivity Ki(Hsα2-AR)/EC50(OctR): highly selective
Balanus OctR (BiOctR)
  selectivity Ki(Hsα2-AR)/EC50(OctR): highly selective
[4]
  EC50: 0.0087 ± 0.0027 µM
[5]
  Ki: 0.109 ± 0.016 µM
[6]
  Ki: 0.231 ± 0.046 µM
Aedes mosquito; Aedes mosquito
  protection against mosquito biting: protects against Aedes mosquito biting
Aedes mosquito; DEET: at the lowest concentration that produces maximal protection against biting (LC50)
  toxicity to mosquitoes: non-toxic to mosquitoes
Aedes mosquito; protection against mosquito biting
  potency relative to DEET: over 500 fold
Volatility
  volatility: low volatility
